Measurements from patent US6730666B1, “Pharmaceutical compositions comprising porphyrins and some novel porphyrin derivatives” (Yeda Research and Development Co. Ltd., priority 1998, dated 2004).
“Also recorded” adds a separate entry of the source.

Key:
FGFR-3 = biological target: T1, FGFR-3 (Homo sapiens, UniProt P22607); test: Binding of 125I-FGF9 to immobilized soluble FGFR-3 (FR-3-AP); settings: FIG. 11
T1 construct: soluble FGFR-3 ectodomain alkaline phosphatase fusion protein (FR-3-AP); made in house; host or cells: NIH 3T3 cells (conditioned medium)
T1 sequence (P22607 23-375 limits assumed): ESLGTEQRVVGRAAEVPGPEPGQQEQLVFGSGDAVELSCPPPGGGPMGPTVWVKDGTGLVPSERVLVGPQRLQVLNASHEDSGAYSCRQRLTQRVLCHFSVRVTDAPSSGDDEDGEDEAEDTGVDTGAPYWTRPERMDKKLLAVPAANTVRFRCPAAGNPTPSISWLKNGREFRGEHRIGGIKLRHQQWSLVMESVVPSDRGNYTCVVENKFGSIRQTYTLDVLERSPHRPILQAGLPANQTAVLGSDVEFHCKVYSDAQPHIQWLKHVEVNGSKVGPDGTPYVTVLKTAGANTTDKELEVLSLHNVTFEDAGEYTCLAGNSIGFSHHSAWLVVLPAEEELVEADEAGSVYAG
Method: Incubations were performed in the presence of 100 ng/ml heparin and increasing concentrations of porphyrins. […] Results represent the mean value in one of at least two independent experiments.
(iii) Binding of ^125I-bFGF or ^125I-FGF9 to s luble FGFR-1 or FGFR-3. Conditioned medium from NIH 3T3 cells secreting soluble FRAP or FGFR-3 FR-3-AP, was incubated for 45 min at room temperature with rabbit anti-human placental AP antibodies (generated as described in Ornitz et al, 1991) prebound to agarose-protein A beads Pierce). The FGFR-1 or FGFR-3-coupled beads were washed three times with 1 ml HNTG and incubated with 2 ng/ml of ^125I-FGF, 1 μg/ml of heparin and porphyrin/corrole compound at different concentrations for 1 h at room temperature. High affinity-bound ^125I-bFGF was determined by counting of the samples in a γ-counter.
Thus, the compounds were tested for their capacity to inhibit binding of a soluble FGFR-3 ectodomain alkaline phosphatase fusion protein (FR-3-AP) to FGF-9, utilizing a cell free system, similar to the one described for FGFR-1 in Example 1 above, and measuring the binding of radiolabeled ^125I-FGF-9 to soluble FGFR-3.

FGFR-1 = FGFR-1 (Mus musculus, UniProt P16092); test: Binding of 125I-bFGF to CHO cells expressing FGFR-1; settings: read-out: Cellular receptor binding (IC50); binding of FGF to FGFR; Methods section (iv)
Chain of FGFR-1 (P16092 22-822): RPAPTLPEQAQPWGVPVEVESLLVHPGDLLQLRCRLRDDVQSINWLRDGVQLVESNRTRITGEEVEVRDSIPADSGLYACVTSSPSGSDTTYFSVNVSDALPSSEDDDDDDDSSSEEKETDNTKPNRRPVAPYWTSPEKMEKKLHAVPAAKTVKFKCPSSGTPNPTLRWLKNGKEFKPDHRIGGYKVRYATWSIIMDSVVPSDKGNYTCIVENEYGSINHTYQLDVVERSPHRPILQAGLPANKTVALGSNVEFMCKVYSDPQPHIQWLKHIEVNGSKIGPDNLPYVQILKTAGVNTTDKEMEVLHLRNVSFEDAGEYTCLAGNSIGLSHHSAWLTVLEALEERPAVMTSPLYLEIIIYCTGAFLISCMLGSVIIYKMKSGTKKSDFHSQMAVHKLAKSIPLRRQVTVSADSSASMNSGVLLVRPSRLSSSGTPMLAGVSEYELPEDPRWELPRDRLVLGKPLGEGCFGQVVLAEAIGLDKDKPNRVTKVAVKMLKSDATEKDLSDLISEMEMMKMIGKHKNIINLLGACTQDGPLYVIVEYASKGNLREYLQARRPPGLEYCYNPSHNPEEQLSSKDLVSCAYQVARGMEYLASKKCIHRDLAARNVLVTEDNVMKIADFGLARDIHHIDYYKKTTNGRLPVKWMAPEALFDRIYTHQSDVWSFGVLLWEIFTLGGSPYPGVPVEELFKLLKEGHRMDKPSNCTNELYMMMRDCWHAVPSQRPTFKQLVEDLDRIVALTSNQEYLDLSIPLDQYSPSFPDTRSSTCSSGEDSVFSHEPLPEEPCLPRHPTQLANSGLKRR
Method: The binding medium was discarded and the cells were washed once with ice-cold DMEM/BSA and twice with cold PBS (pH 7.5) containing 1.6M NaCl. […] Non-specific binding was determined in the presence of a 100-fold excess of unlabeled bFGF.
First we utilized a cell-free system, measuring the binding of radiolabeled bFGF to a dimeric soluble FGFR-1 fused to alkaline phosphatase. The soluble FRAP was immobilized using an anti-alkaline phosphatase antibody prebound to agarose-protein A beads (see Methods, section (iii)). As a: second experimental model, we used CHO cells deficient in heparan sulfate and genetically engineered to express FGFR-1 (Methods, section (iv)).

soluble FGFR-1 (FRAP) = biological target: T2, soluble FGFR-1 (FRAP) (Mus musculus, UniProt P16092); test: Binding of 125I-bFGF to immobilized soluble FGFR-1 (FRAP), cell-free
T2 sequence (P16092 22-376 limits assumed): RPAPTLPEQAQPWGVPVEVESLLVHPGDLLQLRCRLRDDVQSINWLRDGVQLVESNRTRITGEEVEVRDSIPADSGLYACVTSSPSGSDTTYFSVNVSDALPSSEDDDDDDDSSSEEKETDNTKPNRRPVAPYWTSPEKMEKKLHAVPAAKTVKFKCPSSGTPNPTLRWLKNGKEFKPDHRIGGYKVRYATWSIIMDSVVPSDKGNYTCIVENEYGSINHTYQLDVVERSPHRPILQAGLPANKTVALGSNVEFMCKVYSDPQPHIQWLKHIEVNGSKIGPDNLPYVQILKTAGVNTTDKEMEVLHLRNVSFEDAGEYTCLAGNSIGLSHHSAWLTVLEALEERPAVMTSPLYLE
Excerpt: First we utilized a cell-free system, measuring the binding of radiolabeled bFGF to a dimeric soluble FGFR-1 fused to alkaline phosphatase. […] As a: second experimental model, we used CHO cells deficient in heparan sulfate and genetically engineered to express FGFR-1 (Methods, section (iv)).

[1] = tested on: Lewis lung carcinoma (LLC) lung metastasis; test: Lewis lung carcinoma lung metastasis model; assay type: in vivo, C57 black mice; parameters: Inhibitory activity in vivo, LLC tumor model (as % of total inhibition): reference not given here
Method: (vii) Lewis lung carcinoma tumor assay. Murine Lewis lung carcinoma (LLC) D122 cells (1×10^6 cells/[…] PBS) were injected into the foot pads of 10-week old C57 black mice (O'Reilly et al, 1994). Twenty five μg/g of body mass of porphyrin or corrole compound dissolved in PBS were injected IP twice a week to the treated group, and tumor size was measured periodically in order to follow primary tumor formation. In order to evaluate inhibition of lung metastasis by porphyrin or corrole compound, the primary tumors were allowed to develop over a period of six weeks to a volume of approximately 8 mm^3; after which the tumors were removed and metastases were allowed to develop for four weeks. During this time the treated group received 25 μg/g of body mass of porphyrin or corrole compound IP twice a week. Subsequently the mice were sacrificed, dissected and the lungs removed and photographed. The extent of lung metastasis was measured by weighing the lungs.
After establishing the capacity of P1 to inhibit primary tumor growth, the capacity of P1 to inhibit lung metastasis formation was measured as described in Methods, section (vi). Mice were injected with LLC cells (200,000 cells per mouse) into the foot pad and primary tumors were allowed to develop over a period of 3 to 4 weeks to a volume of approximately 8 mm^3. Subsequently, primary tumors were removed through amputation and lung metasases were allowed to develop for four weeks before the mice were sacrificed. The extent of lung metastasis at this point was examined by gross morphological examination and by determining the gain in lung weight. […] In order to quantitate the results from these experiments, the lungs from all mice were weighed and evaluated for the extent of metastatic growth.

FGF receptor = FGF receptor (Mus musculus, UniProt P16092); test: In vitro inhibition of bFGF binding (assay format not stated)
Chain of FGF receptor (P16092 22-822): as the sequence (P16092 22-822) above

Structure (SMILES)	Relative potency in FGF-9/FGFR-3 soluble receptor assay, in words (FGFR-3)	IC50 (FGFR-1) [nM]	IC50 (soluble FGFR-1 (FRAP); read-out: Soluble receptor binding (IC50), binding of FGF to FGFR, Methods section (iii)) [nM]	Inhibition of lung metastasis in LLC model, in words ([1]; 25 μg/g of body mass IP)	Inhibitory activity in vivo, LLC tumor model (as % of total inhibition) ([1]; 25 μg/gram, LLC murine tumor model, lung metastasis) [%]	Activity in vitro in words (inhibition of bFGF binding) (FGF receptor)	Inhibition of bFGF binding to immobilized FRAP, in words (soluble FGFR-1 (FRAP); FIG. 8B)
C[N+](C)(C)c1c(F)c(F)c(-c2c3nc(c(-c4c(F)c(F)c([N+](C)(C)C)c(F)c4F)c4ccc([nH]4)c(-c4c(F)c(F)c([N+](C)(C)C)c(F)c4F)c4nc(c(-c5c(F)c(F)c([N+](C)(C)C)c(F)c5F)c5ccc2[nH]5)C=C4)C=C3)c(F)c1F.O=S(=O)([O-])C(F)(F)F.O=S(=O)([O-])C(F)(F)F.O=S(=O)([O-])C(F)(F)F.O=S(=O)([O-])C(F)(F)F [Compound P15, 5,10,15,20-Tetrakis(2,3,5,6-tetrafluoro-4-trimethyl-ammonio-phenyl)-21H,23H-methyl-porphine tetra-trifluoromethylsulfonate]	more potent	120	80				
C[n+]1ccccc1-c1c(F)c(F)c(-c2c3nc(c(-c4c(F)c(F)c(-c5cccc[n+]5C)c(F)c4F)c4ccc([nH]4)c(-c4c(F)c(F)c(-c5cccc[n+]5C)c(F)c4F)c4nc(c(-c5c(F)c(F)c(-c6cccc[n+]6C)c(F)c5F)c5ccc2[nH]5)C=C4)C=C3)c(F)c1F [Compound P20, 5,10,15,20-Tetrakis[4-(N-methyl-2-pyridylium) 2,3,5,6-tetrafluoro-phenyl]-21H,23H-porphine tetraiodide]				highly active in vivo; also recorded: more active than P1	150	significantly more active than P1	inhibit bFGF binding in vitro
